From patent publication US20230339886A1 (University of Florida Research Foundation, Incorporated, priority 2020, published 2023)
Like-named read-outs stand apart in the source and are kept apart here.

Target: T1, REV-ERBα LBD (human; residues 281-614 Δ324-422) (Homo sapiens, UniProt P20393, DEL324-422)
T1 construct: 6×Histag-REV-ERBα LBD (human; residues 281-614 Δ324-422); made in house; host or cells: Escherichia coli
Assay: TR-FRET corepressor interaction assay (REV-ERBα LBD, FITC-SMRT peptide)
Format: biochemical
Protocol: TR-FRET corepressor interaction assay. The time-resolved fluorescence resonance energy transfer (TR-FRET) assay was performed in black low-volume 384-well plates (Greiner). […] Ligand stocks were prepared via serial dilution in DMSO, added to wells in triplicate, and plates were incubated at 4° C. for 2 h and read using a BioTek Synergy Neo multimode plate reader. The Tb donor was excited at 340 nm; its fluorescence emission was monitored at 495 nm, and the acceptor FITC emission was measured at 520 nm; and the TR-FRET ratio was calculated as the signal at 520 nm divided by the signal at 495 nm. Data were plotted using GraphPad Prism as TR-FRET ratio vs. ligand concentration and fit to sigmoidal dose response curve equation.

[1] = Table 2, read-out: REVERBα agonism (EC50 class, FRET assay)
[2] = FITC-SMRT peptide, read-out: REVERBα agonism (EC50 class, FRET assay)

T1 sequence (P20393 with tags, fused parts or gaps DEL324-422): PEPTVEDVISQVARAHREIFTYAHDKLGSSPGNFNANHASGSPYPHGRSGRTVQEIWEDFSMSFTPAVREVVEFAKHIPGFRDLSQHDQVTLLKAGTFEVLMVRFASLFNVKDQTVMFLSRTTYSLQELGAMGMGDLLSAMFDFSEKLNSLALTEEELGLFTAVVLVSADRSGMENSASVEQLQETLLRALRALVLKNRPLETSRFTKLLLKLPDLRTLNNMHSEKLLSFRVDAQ
T1 sequence (Q9Y618 2335-2356 partner limits assumed): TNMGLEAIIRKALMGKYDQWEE

SMILES | EC50 [1] | EC50 [2]
CC(C)Cn1cc(C(NS(=O)(=O)C2CC2)C(F)(F)F)c2ccc(-c3ccccc3C(F)(F)F)cc21 (stereo not shown) [Example 208] | < 0.5 µM | –
CC(C)(C)Cc1cn(CCNS(=O)(=O)C2CC2)c2ccc(-c3cncc4ccccc34)cc12 [Example 218, N-(2-(5-(isoquinolin-4-yl)-3-neopentyl-1H-indol-1-yl)ethyl)cyclopropane-sulfonamide] | 0.5 to 3 µM | –
CC(C)Cn1cc(CCNS(=O)(=O)N(C)C)c2ccc(Nc3ccnn3C)cc21 [Compound 69, 3-{2-[(dimethylsulfamoyl)amino]ethyl}-N-(1-methyl-1H-pyrazol-5-yl)-1-(2-methylpropyl)-1H-indol-6-amine] | > 3 µM | –
CC(C)(C)Cn1cc([C@H](NS(=O)(=O)C2CC2(C)C)C(F)(F)F)c2ccc(-c3ccccc3C(F)(F)F)cc21 (stereo partly drawn) [Example 426, 2,2-dimethyl-N—((S)-2,2,2-trifluoro-1-(1-neopentyl-6-(2-(trifluoromethyl)phenyl)-1H-indol-3-yl)ethyl)cyclopropane-1-sulfonamide] | – | 0.5 to 3 µM
[2H][C@](NS(=O)(=O)C1CCC1)(c1cn(CC(C)(C)C)c2cc(-c3ccccc3C(F)(F)F)ccc12)C(F)F [Example 563, (S)—N-(2,2-difluoro-1-(1-neopentyl-6-(2-(trifluoromethyl)phenyl)-1H-indol-3-yl)ethyl-1-d)cyclobutanesulfonamide] | – | < 0.5 µM
CC(C)(C)Cn1cc([C@H](NS(=O)(=O)C2CC2)C(F)(F)F)c2ccc(Br)c(F)c21 [Example 369, (S)—N-(1-(6-bromo-7-fluoro-1-neopentyl-1H-indol-3-yl)-2,2,2-trifluoroethyl)cyclopropanesulfonamide] | 0.5 to 3 µM | –
CN(C)S(=O)(=O)NCCc1cn(CCOC(C)(C)C)c2cc(-c3ccncc3)ccc12 [Compound 237] | 0.5 to 3 µM | –
CC(C)(C)Cn1cc([C@H](NS(=O)(=O)C2CC2)C(F)(F)F)c2cc(F)c(-c3ccc(F)cc3C(F)(F)F)cc21 [Example 355, (S)—N-(2,2,2-trifluoro-1-(5-fluoro-6-(4-fluoro-2-(trifluoromethyl)phenyl)-1-neopentyl-1H-indol-3-yl)ethyl)cyclopropanesulfonamide] | < 0.5 µM | –
CC(C)Cn1cc([C@H](NS(=O)(=O)C2CC2)C(F)(F)F)c2ccc(-c3ccccc3C(F)(F)F)cc21 [Example 325] | < 0.5 µM | –
CC(C)(C)Cn1cc([C@H](NS(=O)(=O)C2CCC2)C(F)(F)F)c2ccc(C(F)(F)F)cc21 [Example 416, (S)—N-(2,2,2-trifluoro-1-(1-neopentyl-6-(trifluoromethyl)-1H-indol-3-yl)ethyl)cyclobutanesulfonamide] | > 3 µM | –
CC(C)(C)Cn1cc([C@H](NS(=O)(=O)C2CC2)C(F)(F)F)c2ccc(-c3cccnc3)cc21 [Example 383, (S)—N-(2,2,2-trifluoro-1-(1-neopentyl-6-(pyridin-3-yl)-1H-indol-3-yl)ethyl)cyclopropanesulfonamide] | 0.5 to 3 µM | –
CC(C)Cn1cc(CCNS(=O)(=O)N(C)C)c2ccc(OCc3ccccc3)cc21 [Example 115, N′-{2-[6-benzyloxy-1-(2-methylpropyl)-1H-indol-3-yl]ethyl}-N,N-dimethylsulfuric diamide] | 0.5 to 3 µM | –
CC(C)(C)Cn1cc([C@H](NS(=O)(=O)C2CCC2)C(F)(F)F)c2cc(F)c(-c3ccccc3C#N)cc21 [Example 440, (S)—N-(1-(6-(2-cyanophenyl)-5-fluoro-1-neopentyl-1H-indol-3-yl)-2,2,2-trifluoroethyl)cyclobutanesulfonamide] | – | < 0.5 µM
CC(C)Cn1cc(CCNS(=O)(=O)N(C)C)c2ccc(-c3ccccc3-c3ccccc3)cc21 [Example 74, N-{2-[6-[(1,1-diphenyl)-2yl]-1-(2-methylpropyl)-1H-indol-3-yl]ethyl}-N,N-dimethylsulfuric diamide] | > 3 µM | –
CC(C)(C)Cn1cc([C@H](NS(=O)(=O)C2CC2)C(F)(F)F)c2cc(F)c(-c3cccc4c3CCCC4)cc21 [Example 477, N-[(1S)-1-[1-(2,2-dimethylpropyl)-5-fluoro-6-tetralin-5-yl-indol-3-yl]-2,2,2-trifluoro-ethyl]cyclopropanesulfonamide] | – | 0.5 to 3 µM
Cc1ccc(-c2ccc3c(CCS(=O)(=O)C4CC4)cn(CC(C)(C)C)c3c2)c(C(F)(F)F)c1 [Example 408, 3-(2-(cyclopropylsulfonyl)ethyl)-6-(4-methyl-2-(trifluoromethyl)phenyl)-1-neopentyl-1H-indole] | < 0.5 µM | –
Cc1cc2c(cc1F)c(CCNS(=O)(=O)N(C)C)cn2CC(C)C [Example 170, ({2-[5-fluoro-6-methyl-1-(2-methylpropyl)-1H-indol-3-yl]ethyl}sulfamoyl)dimethylamine] | < 0.5 µM | –

SMILES | EC50 [1] | EC50 [2]
CC(C)Cn1cc(CCNS(=O)(=O)N(C)C)c2ccc(-c3ccoc3)cc21 [Compound 66, ({2-[6-(furan-3-yl)-1-(2-methylpropyl)-1H-indol-3-yl]ethyl}sulfamoyl)dimethylamine] | < 0.5 µM | –
CC(C)(C)Cn1cc([C@H](NS(=O)(=O)C2CC2)C(F)(F)F)c2cc(F)c(-c3ccncc3Cl)cc21 [Example 361, (S)—N-(1-(6-(3-chloropyridin-4-yl)-5-fluoro-1-neopentyl-1H-indol-3-yl)-2,2,2-trifluoroethyl)cyclopropanesulfonamide] | < 0.5 µM | –
CC(C)Cn1cc([C@H]2C[C@H]2NS(=O)(=O)C(C)C)c2ccc(-c3ccccc3)cc21 [Compound 259] | > 3 µM | –
CN(C)S(=O)(=O)NCCc1cn(Cc2cccc([N+](=O)[O-])c2)c2cc(-c3ccncc3)ccc12 [Example 148, N-{2-[6-(pyridin-4-yl)-1-(3-nitrobenzyl)-1H-indol-3-yl]ethyl}-N,N-dimethylsulfuric diamide] | 0.5 to 3 µM | –
CC(C)Cn1cc(-c2cnn(S(=O)(=O)C(C)C)c2)c2ccc(-c3ccccc3)cc21 [Example 63, 1-isobutyl-3-(1-(isopropylsulfonyl)-1H-pyrazol-4-yl)-6-phenyl-1H-indole] | > 3 µM | –
CC(C)c1cc2c(cc1F)c([C@H](NS(=O)(=O)N(C)C)C(F)(F)F)cn2CC(C)(C)C [Example 337, {[(1S)-1-[1-(2,2-dimethylpropyl)-5-fluoro-6-(propan-2-yl)-1H-indol-3-yl]-2,2,2-trifluoroethyl]sulfamoyl}dimethylamine] | 0.5 to 3 µM | –
CC(C)(C)Cn1cc([C@H](NS(=O)(=O)C2CC2)C(F)(F)F)c2ccc(-c3cccc(F)c3C#N)cc21 [Example 386, (S)—N-(1-(6-(2-cyano-3-fluorophenyl)-1-neopentyl-1H-indol-3-yl)-2,2,2-trifluoroethyl)cyclopropanesulfonamide] | 0.5 to 3 µM | –
CN(C)S(=O)(=O)NCCc1cn(Cc2cccc(Cl)c2)c2cc(-c3ccncc3)ccc12 [Example 141, N-{2-[6-(pyridin-4-yl)-1-(3-chlorobenzyl)-1H-indol-3-yl]ethyl}-N,N-dimethylsulfuric diamide] | < 0.5 µM | –
CC(C)(C)Cn1cc([C@H](NS(=O)(=O)C2CC2)C(F)F)c2ccc(-c3c(F)cccc3C(F)(F)F)cc21 [Example 543, (S)—N-(2,2-difluoro-1-(6-(2-fluoro-6-(trifluoromethyl)phenyl)-1-neopentyl-1H-indol-3-yl)ethyl)cyclopropanesulfonamide] | – | < 0.5 µM
CN(C)S(=O)(=O)NCCc1cn(C(=O)C(C)(C)C)c2cc(-c3ccncc3)ccc12 [Compound 156, 1-(3-{2-[(dimethylsulfamoyl)amino]ethyl}-6-(pyridin-4-yl)-1H-indol-1-yl)-2,2dimethylpropan-1-one] | > 3 µM | –
CC(C)(C)Cn1cc([C@H](NS(=O)(=O)C2CCC2)C(F)(F)F)c2ccc(-c3ccccc3C#N)cc21 [Example 495, (S)—N-(1-(6-(2-cyanophenyl)-1-neopentyl-1H-indol-3-yl)-2,2,2-trifluoroethyl)cyclobutanesulfonamide] | – | < 0.5 µM
COc1ccc2cc(-c3ccc4c(c3)c(CC(C)(C)C)cn4CCNS(=O)(=O)C3CC3)ccc2c1 [Compound 220] | > 3 µM | –
N#Cc1cccc(F)c1-c1ccc2c([C@H](NS(=O)(=O)C3CCC3)C(F)(F)F)cn(C3CCC3)c2c1 [Example 520, (S)—N-(1-(6-(2-cyano-6-fluorophenyl)-1-cyclobutyl-1H-indol-3-yl)-2,2,2-trifluoroethyl)cyclobutanesulfonamide] | – | < 0.5 µM
NC(=O)c1cccc(F)c1-c1ccc2c([C@H](NS(=O)(=O)C3CCC3)C(F)(F)F)cn(C3CCOCC3)c2c1 [Example 434, (S)-2-(3-(1-(cyclobutanesulfonamido)-2,2,2-trifluoroethyl)-1-(tetrahydro-2H-pyran-4-yl)-1H-indol-6-yl)-3-fluorobenzamide] | – | > 3 µM
Cc1nc2ccccn2c1-c1ccc2c([C@H](NS(=O)(=O)C3CC3)C(F)(F)F)cn(CC(C)(C)C)c2c1 [Example 385, (S)—N-(2,2,2-trifluoro-1-(6-(2-methylimidazo[1,2-a]pyridin-3-yl)-1-neopentyl-1H-indol-3-yl)ethyl)cyclopropanesulfonamide] | 0.5 to 3 µM | –
CN(C)C(=O)c1ccccc1-c1ccc2c([C@H](NS(=O)(=O)C3CC3)C(F)(F)F)cn(CC(C)(C)C)c2c1 [Example 471, (S)-2-(3-(1-(cyclopropanesulfonamido)-2,2,2-trifluoroethyl)-1-neopentyl-1H-indol-6-yl)-N,N-dimethylbenzamide] | – | 0.5 to 3 µM
CC(C)(C)Cn1cc([C@H](NS(=O)(=O)C2CCC2)C(F)(F)F)c2ccc(C3=CCCC3)cc21 [Example 521, (S)—N-(1-(6-cyclopentenyl-1-neopentyl-1H-indol-3-yl)-2,2,2-trifluoroethyl)cyclobutanesulfonamide] | – | < 0.5 µM
